Measured values taken from ChEMBL document CHEMBL5727660, “Compounds for the treatment of pain” (2020).

Target: Mu-type opioid receptor (Homo sapiens, UniProt P35372)
Experiment: Competitive Displacement Assay: Membrane protein from CHO (Chinese Hamster Ovarian) cells that stably expressed one type of the cloned human opioid receptor were incubated with 12 different concentrations of the compound in the presence of 0.25 nM [3H]DAMGO, 0.2 nM [3H]naltrindole or 1 nM [3H]U69,593 in a final volume of 1 mL of 50 mM Tris-HCl, pH 7.5 at 25° C. Incubation times of 60 min were used for [3H]DAMGO and [3H]U69,593. Because of a slower association of [3H]naltrindole with the receptor, a 3 h incubation was used with this radioligand. Samples incubated with [3H]naltrindole also contained 10 mM MgCl2 and 0.5 mM phenylmethylsulfonyl fluoride. Nonspecific binding was measured by inclusion of 10 μM naloxone. The binding was terminated by filtering the samples through Schleicher & Schuell No. 32 glass fiber filters using a Brandel 48-well cell harvester. The filters were subsequently washed three times with 3 mL of cold 50 mM Tris-HCl, pH 7.5, and were counted in 2 mL Ecoscint A scintillation fluid. For [3H]naltrindole and [3H]U69,593 binding, the filters were soaked in 0.1% polyethylenimine for at least 60 min before use.

Mu-type opioid receptor, sequence (P35372 whole entry): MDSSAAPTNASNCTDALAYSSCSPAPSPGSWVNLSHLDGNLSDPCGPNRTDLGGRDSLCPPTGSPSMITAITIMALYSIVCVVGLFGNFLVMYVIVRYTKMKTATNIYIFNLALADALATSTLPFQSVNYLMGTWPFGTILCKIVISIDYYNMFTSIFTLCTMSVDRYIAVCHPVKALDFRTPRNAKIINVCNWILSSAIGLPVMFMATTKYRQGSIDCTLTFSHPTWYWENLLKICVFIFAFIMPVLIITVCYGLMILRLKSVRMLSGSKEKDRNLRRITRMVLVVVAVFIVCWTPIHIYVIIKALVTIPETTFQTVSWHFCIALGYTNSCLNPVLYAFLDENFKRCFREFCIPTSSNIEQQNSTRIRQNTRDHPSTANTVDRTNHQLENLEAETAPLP

COC1(c2ccnc(C(N)=O)c2)C2CCCC1CN(Cc1cc3ccccc3[nH]1)C2 (stereo unspecified)
Ki: < 1 nM
